These results are taken from ChEMBL document CHEMBL1921744, “Lipophosphonoxins: new modular molecular structures with significant antibacterial properties” (J Med Chem, 2011).

This test has as its system Mycobacterium tuberculosis. Nature of the test: Antimycobacterial activity against drug-resistant Mycobacterium tuberculosis. It counts as functional.

Values after ≈ are worked out from the molar mass of the structure shown.

For `CO[C@@H]1[C@@H](OC)[C@H](C)O[C@@H](OC(=O)C[C@@H](C)CC(=O)O[C@@H](CCCCCCCCCCCC(C)C)CC(=O)O[C@H]2CN(C)[C@@H]([C@H](O[C@@H]3O[C@H](CN)[C@@H](O)[C@H]3O)[C@H]3O[C@@H](n4ccc(=O)[nH]c4=O)[C@H](O)[C@@H]3O)C(=O)N(C)[C@@H]2C(=O)O)[C@@H]1OC` [CAPRAZAMYCIN B], it took 3.13 µg/mL (≈ 2.7 µM) to inhibit growth (MIC).
